Reference: patent US6436948B1, “Method for the treatment of psoriasis and genital warts” (priority 1995, dated 2002)
“Also recorded” adds a separate entry of the source.

How the values were obtained:
SP-268 = details: CNS Cancer, PG +50, 48 hours
Description: (§5) GI50, TGI and LC50 are values representing the concentrations at which the PG (percent of growth inhibition), defined below, is +50, 0, and −50, respectively.
(§6) If (Mean ODtest−Mean ODtzero)≧0. then PG=100×(Mean ODtest−Mean ODtzero)/(Mean ODctrl−Mean ODtzero)
(§7) If (Mean ODtest−Mean ODtzero)<0. then PG=100×(Mean ODtest−Mean ODtzero)/(Mean ODtzero)
(§8) Mean ODtzero=The average of optical density measurements of SRB-derived color just before exposure of cells to the test compound.
(§9) Mean ODtestThe average of optical density measurements of SRB-derived color after 48 hours exposure of cells to the test compound.
(§10) Mean ODctrl=The average of optical density measurements of SRB-derived color after 48 hours with no exposure of cells to the test compound.
(§11) If these response parameters could not be obtained by interpolation, the value given for each response parameter is the highest concentration tested and is preceded by a “>” sign.

RL-60(TB) = assay: NCI cancer screening program, SRB: RL-60(TB); format: cell-based
cytidine deaminase = cytidine deaminase (Homo sapiens, UniProt P32320); assay: Enzymatic studies of deamination
RPMI-2.26 = assay: NCI cancer screening program, SRB: RPMI-2.26; format: cell-based; details: Leukemia, PG +50, 48 hours
HT29 = assay: NCI cancer screening program, SRB: HT29; format: cell-based; details: Colon Cancer, PG +50, 48 hours
U251 = assay: NCI cancer screening program, SRB: U251; format: cell-based; details: CNS Cancer, PG +50, 48 hours
HepG2 tumors = assay: HepG2 xenograft in NCr nude mice; format: in vivo, human; details: for Effect on HepG2 tumors in words: 25 mg/kg twice a day on days 0 through 4, NCr nude mice; for Net cell kill (log 10): HepG2 tumors, 25 mg/kg twice a day days 0 through 4
Description: (§1) FIG. 5 is a graph of the inhibition of human tumor growth by […]. Three to six week old NCr nude mice were inoculated subcutaneously in each flank with 2×10^6 HepG2 or DU-145 cells. Treatment was started when the tumors were in an advanced stage of growth. Drugs were administered twice a day on days 0 through 4 and tumor sizes were measured on the indicated days. […] Each data point represents the means±SD of 10 tumors in graph A and six tumors in graph B.
(§2) Three to six-week-old NCr nude mice (Taconic Immunodeficient Mice and Rats) were inoculated s.c. in each flank with 2×10^6HepG2 or DU-145 cells and tumors were allowed to grow. Treatment was started when the tumors were 100-250mg as determined by caliper measurement and calculated according to the formula:
(§3) Tumor Weight(mg)=length(mm)×width(mm^2)÷2
(§4) Drugs were given at the indicated doses on days 0 through 4 and tumor sizes were measured every several days. The tumor growth curves were generated as described in Bell, et al., Cancer(phila.) 36:2437-2440 (1975), and are illustrated in FIGS. 5(a) and 5(b).

[1] = tested on: DU-145 prostate carcinoma line; assay: In vitro cytotoxicity, methylene blue assay / cell count: DU-145; format: cell-based; details: Homo sapiens, read-out: ID50 (the source's name)
SK-OV-3 = assay: NCI cancer screening program, SRB: SK-OV-3; format: cell-based; details: Ovarian Cancer
HCT-116 = assay: NCI cancer screening program, SRB: HCT-116; format: cell-based; details: Colon Cancer, PG +50, 48 hours
SN12C = assay: NCI cancer screening program, SRB: SN12C; format: cell-based; details: Renal Cancer, PG +50, 48 hours
TK-30 = details: Renal Cancer
Description: as §5, §6, §7, §8, §9, §10, §11

HOP-62 = assay: NCI cancer screening program, SRB: HOP-62; format: cell-based; details: Non-Small Cell Lung Cancer, PG +50, 48 hours
[2] = tested on: PC-3 prostate carcinoma line; assay: In vitro cytotoxicity, methylene blue assay / cell count: PC-3; format: cell-based; details: three generations, mean ± standard deviation of five experiments, read-out: ID50 (the source's name)
[3] = molecular target: human deoxycytidine kinase (Homo sapiens, UniProt P27707); assay: In vitro enzymatic studies of phosphorylation; format: biochemical
A549/ATCC = assay: NCI cancer screening program, SRB: A549/ATCC; details: Non-Small Cell Lung Cancer, PG +50, 48 hours
Description: as §5, §6, §7, §8, §9, §10, §11

RXF-393 = assay: NCI cancer screening program, SRB: RXF-393; format: cell-based; details: Renal Cancer, PG +50, 48 hours
Colon 38 tumor cells = assay: In vivo treatment of Colon 38 tumor cells implanted sc in BDF1 mice; set-up: species or system mouse; details: 25 mg/kg/dose twice daily for five days
Text: The graph plots tumor growth as a percentage of original tumor weight vs. days. Treatment of the mice occurred in days 1, 2, 3, 4 and 5.
Colon 38 tumor cells were implanted sc to BDF1 mice.

[4] = tested on: KB nasopharyngeal carcinoma cell line; assay: In vitro cytotoxicity, methylene blue assay / cell count: KB; format: cell-based; details: three generations, mean ± standard deviation of five experiments, read-out: ID50 (the source's name)
ACHN = assay: NCI cancer screening program, SRB: ACHN; format: cell-based; details: Renal Cancer, PG +50, 48 hours
T-47D = assay: NCI cancer screening program, SRB: T-47D; format: cell-based; details: Breast Cancer, PG +50, 48 hours
OVCAR-8 = assay: NCI cancer screening program, SRB: OVCAR-8; format: cell-based; details: Ovarian Cancer
CEM cells = assay: In vitro cytotoxicity, methylene blue assay / cell count: CEM; format: cell-based; details: Homo sapiens, CCRF-CEM, three generations, mean ± standard deviation of five experiments, read-out: ID50 (the source's name)
BT-549 = assay: NCI cancer screening program, SRB: BT-549; format: cell-based; details: Breast Cancer, PG +50, 48 hours
NCI-H23 = assay: NCI cancer screening program, SRB: NCI-H23; format: cell-based; details: Non-Small Cell Lung Cancer, PG +50, 48 hours
LOX D6VI = assay: NCI cancer screening program, SRB: LOX D6VI; format: cell-based; details: Melanoma
785-4 = details: Renal Cancer, PG +50, 48 hours
Description: as §5, §6, §7, §8, §9, §10, §11

CCRF-CEM = assay: NCI cancer screening program, SRB: CCRF-CEM; format: cell-based; details: Leukemia, log10 concentration at PG +50, 48 hours
SK-MEL-5 = assay: NCI cancer screening program, SRB: SK-MEL-5; format: cell-based; details: Melanoma, PG +50, 48 hours
CAKI-1 = assay: NCI cancer screening program, SRB: CAKI-1; format: cell-based; details: Renal Cancer, PG +50, 48 hours
DU-145 tumors = assay: DU-145 xenograft in NCr nude mice; format: in vivo, human
Description: as §1, §2, §3, §4

Sequence of cytidine deaminase (P32320 whole entry, species assumed): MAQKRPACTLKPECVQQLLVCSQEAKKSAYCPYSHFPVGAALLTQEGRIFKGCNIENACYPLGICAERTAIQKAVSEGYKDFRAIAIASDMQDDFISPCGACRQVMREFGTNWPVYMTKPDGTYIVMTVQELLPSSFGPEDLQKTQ
Sequence of human deoxycytidine kinase (P27707 whole entry): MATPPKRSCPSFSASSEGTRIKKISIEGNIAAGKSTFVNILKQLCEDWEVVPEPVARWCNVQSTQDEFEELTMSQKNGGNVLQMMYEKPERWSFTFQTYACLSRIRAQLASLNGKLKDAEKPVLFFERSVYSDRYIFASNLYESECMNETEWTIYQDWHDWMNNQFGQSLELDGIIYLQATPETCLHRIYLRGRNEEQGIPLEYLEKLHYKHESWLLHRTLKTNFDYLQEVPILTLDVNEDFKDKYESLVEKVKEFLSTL

Nc1ccn([C@@H]2CO[C@H](CO)O2)c(=O)n1 [(−)-OddC, (−)-(2S,4S)-1-(2-hydroxymethyl-1,3-dioxolan-4-yl)cytosine]
Log10GI50 (SP-268): −5.18 | Log10GI50 (RL-60(TB)): −6.28 | Substrate for deaminase / deamination by cytidine deaminase (cytidine deaminase): not a substrate; also recorded: not deaminated | Log10GI50 (RPMI-2.26): −4.03 | Log10GI50 (HT29): >−4.00 | Log10GI50 (U251): −4.91 | Effect on HepG2 tumors in words (HepG2 tumors): active | Effect on HepG2 tumors in words (HepG2 tumors; listed as (L)-OddC): effective | Net cell kill (log 10) (HepG2 tumors; i.p. treatment): 0.67 | Net cell kill (log 10) (HepG2 tumors; oral treatment): 0.87 | IC50 [1]: 24 ± 20 nM | LOG10TGI (SK-OV-3; PG 0, 48 hours): >−4.00 | LOG10GI50 (SK-OV-3; PG +50, 48 hours): −5.35 | Log10GI50 (HCT-116): −5.23 | LOG10GI50 (SN12C): −6.27 | LOG10TGI (TK-30; PG 0, 48 hours): >−4.00 | LOG10GI50 (TK-30; PG +50, 48 hours): >−4.00 | Log10GI50 (HOP-62): −6.23 | IC50 [2]: 56 ± 39 nM | Phosphorylation by human deoxycytidine kinase [3]: can be phosphorylated | Log10GI50 (A549/ATCC): −6.01 | LOG10GI50 (RXF-393): −6.17 | Colon tumor cell growth (Colon 38 tumor cells): retarded | IC50 [4]: 48 ± 21 nM | LOG10GI50 (ACHN): −6.46 | LOG10GI50 (T-47D): >−4.00 | LOG10TGI (OVCAR-8; PG 0, 48 hours): >−4.00 | LOG10GI50 (OVCAR-8; PG +50, 48 hours): −5.82 | IC50 (CEM cells): 25 ± 30 nM | LOG10GI50 (BT-549): −4.59 | Log10GI50 (NCI-H23): −4.92 | Log10TGI (LOX D6VI; PG 0, 48 hours): >−4.00 | Log10GI50 (LOX D6VI; PG +50, 48 hours): −6.39 | LOG10GI50 (785-4): −5.36 | Log10GI50 (CCRF-CEM): −6.64 | Log10GI50 (SK-MEL-5): −4.91 | LOG10GI50 (CAKI-1): −6.65 | Effect on DU-145 tumors in words (DU-145 tumors; 25 mg/kg twice a day on days 0 through 4, NCr nude mice): effective | DU-145 tumors regressing completely (DU-145 tumors; by day 15): half of them regressing completely
